# Measurements reported in US11986452B2, “Methods of reducing the risk of heart failure” (Amarin Pharmaceuticals Ireland Limited, priority 2021, dated 2024).
# Columns and labels:
# [1] = tested on: TG, non-HDL-C, LDL-C, HDL-C, Apo B, hsCRP; assay: REDUCE-IT fasting lipid profile and biomarker assays over time; type: in vivo, human; settings: for Apo B between group difference vs placebo, median % change from baseline / Apo B between group difference vs placebo, median absolute change from baseline / HDL-C between group difference vs placebo, median % change from baseline / HDL-C between group difference vs placebo, median absolute change from baseline / LDL-C Hopkins between group difference vs placebo, median % change from baseline / LDL-C Hopkins between group difference vs placebo, median absolute change from baseline / LDL-C derived between group difference vs placebo, median % change from baseline / LDL-C derived between group difference vs placebo, median absolute change from baseline / Log hsCRP between group difference vs placebo, median absolute change from baseline / Non-HDL-C between group difference vs placebo, median % change from baseline / Non-HDL-C between group difference vs placebo, median absolute change from baseline / Triglycerides between group difference vs placebo, median absolute change from baseline / hsCRP between group difference vs placebo, median absolute change from baseline: ITT
# Protocol: Fasting Lipid Profile: The fasting lipid panel included: TG, TC, LDL-C, HDL-C, non-HDL-C, and VLDL-C. At all visits, LDL-C was calculated using the Friedewald equation. At Visit 1 and Visit 1.1 direct LDL-C were used if at the same visit TG>400 mg/dL (4.52 mmol/L). These LDL-C values were used for the evaluation of the LDL-C inclusion criterion (LDL-C qualifying measurements for randomization) and for the assessment of changes in the statin therapy when LDL-C was not at goal. […] In addition, irrespective of the TG levels, at Visit 2 (0 Months of Follow-up, baseline) and at Visit 4 (12 Months of Follow-up), LDL-C were measured by preparative ultracentrifugation. These preparative ultracentrifugation LDL-C measurements were used in the statistical analysis including the calculation of the percent change from baseline (1 year versus baseline). Hopkins LDL-C was calculated for each visit.
# Biomarkers Assays: The biomarker assays included: hsCRP, Apo B and hsTnT.
# The fasting lipid panel was tested at Screening (Visit 1 or Visit 1.1), Randomization visit (Visit 2; Day 0), Visit 3 (Day 120; ˜4 Months) and all other follow-up visits including the last visit. For change from baseline to 1 year preparative ultracentrifugation measurements for LDL-C were analyzed, unless this value was missing. If the LDL-C preparative ultracentrifugation values were missing, then another LDL-C value was used, with prioritization of values obtained from LDL-C Direct measurements, followed by LDL-C derived by the Friedewald calculation (only for subjects with TG<400 mg/dL), and finally LDL-C derived using the calculation published by Hopkins University investigators (Martin S S, Blaha M J, Elshazly M B, et al. Comparison of a novel method vs the Friedewald equation for estimating low-density lipoprotein cholesterol levels from the standard lipid profile. JAMA. 2013; 310:2061-8.). In addition, change from baseline to day 120 in LDL-C utilizing Friedewald's and Hopkins methods was analyzed, using the arithmetic mean of LDL-C obtained at Visit 2 (Day 0) and the preceding Visit 1 (or Visit 1.1). If one of these values was missing, the single available LDL-C value was used. LDL-C according to Hopkins was calculated at each visit.
# The randomization visit was considered Baseline. If a baseline value was not available from the randomization visit, then the latest screening value was used. For measurements of lipids, lipoproteins and inflammatory markers, the change and the percent change were summarized at each visit. Since these biomarkers are typically not normally distributed, the Wilcoxon rank-sum test was used for treatment comparisons of the percent change from baseline, and medians and quartiles were provided for each treatment group. The medians of the differences between the treatment groups and 95% CIs were estimated with the Hodges-Lehmann method. In addition, shift-tables were generated as appropriate.
# [2] = tested on: statin-treated patients in the icosapent ethyl group; assay: Example 5: new heart failure by on-treatment EPA tertile (post hoc); type: in vivo, human; settings: for New heart failure requiring hospitalization: HR vs lowest on treatment EPA tertile / New heart failure: HR vs lowest on treatment EPA tertile: post hoc, icosapent ethyl group only
# Excerpt: The mechanical or surgical intervention including mechanical circulatory support (e.g., intra-aortic balloon pump, ventricular assist device) and/or mechanical fluid removal (e.g., ultrafiltration, hemofiltration, dialysis).
# New Heart Failure/Heart Failure Not Requiring Hospitalization: is defined as an event that meets all of the following: the patient has an urgent, unscheduled office/practice or emergency department visit for a primary diagnosis of HF, but not meeting the criteria for a HF hospitalization; all signs and symptoms for HF hospitalization must be met as defined in A Heart Failure Hospitalization above; and the patient receives initiation or intensification of treatment specifically for HF, as detailed in the above section with the exception of oral diuretic therapy, which was not sufficient.
# The study design was the same as that described above in Example 1 related to the REDUCE-IT clinical trial.
# Prespecified tertiary endpoints of NHF (HR=0.95; 95% CI, 0.77-1.17; p=0.63) and NHF requiring hospitalization (HR=0.97; 0.77-1.22; p=0.78) from the REDUCE-IT clinical trial were not significant.
compound,measurement,setting,value
"CC/C=C\C/C=C\C/C=C\C/C=C\C/C=C\CCCC(=O)OCC [icosapent ethyl, eicosapentaenoic acid ethyl ester]","Apo B between group difference vs placebo, median % change from baseline",[1]; Last Visit,−6.7%
same,"Apo B between group difference vs placebo, median absolute change from baseline",[1]; Last Visit,-5.0 mg/dL
same,"HDL-C between group difference vs placebo, median % change from baseline",[1]; Last Visit,−3.0%
same,"HDL-C between group difference vs placebo, median absolute change from baseline",[1]; Last Visit,-1.0 mg/dL
same,"LDL-C Hopkins between group difference vs placebo, median % change from baseline",[1]; Last Visit,−7.4%
same,"LDL-C Hopkins between group difference vs placebo, median absolute change from baseline",[1]; Last Visit,-6.2 mg/dL
same,"LDL-C derived between group difference vs placebo, median % change from baseline",[1]; Last Visit,−6.6%
same,"LDL-C derived between group difference vs placebo, median absolute change from baseline",[1]; Last Visit,-5.0 mg/dL
same,"Log hsCRP between group difference vs placebo, median absolute change from baseline",[1]; Last Visit,−0.4 mg/L
same,"Non-HDL-C between group difference vs placebo, median % change from baseline",[1]; Last Visit,−8.6%
same,"Non-HDL-C between group difference vs placebo, median absolute change from baseline",[1]; Last Visit,-10.0 mg/dL
same,"Triglycerides between group difference vs placebo, median absolute change from baseline",[1]; Last Visit,-32.0 mg/dL
same,"hsCRP between group difference vs placebo, median absolute change from baseline",[1]; Last Visit,-0.8 mg/L
same,"HDL-C between group difference vs placebo, median % change from baseline",[1]; Month 4,−7.2%
same,"HDL-C between group difference vs placebo, median absolute change from baseline",[1]; Month 4,-3.0 mg/dL
same,"LDL-C Hopkins between group difference vs placebo, median absolute change from baseline",[1]; Month 4,-8.7 mg/dL
same,Apo B median value,[1]; Year 1 (Table 18),80.0 mg/dL
same,hsCRP median value,[1]; Year 1 (Table 18),1.8 mg/L
same,"HDL-C between group difference vs placebo, median % change from baseline",[1]; Year 1,−6.3%
same,"HDL-C between group difference vs placebo, median absolute change from baseline",[1]; Year 1,-2.5 mg/dL
same,"LDL-C Hopkins between group difference vs placebo, median absolute change from baseline",[1]; Year 1,-9.6 mg/dL
same,"LDL-C derived between group difference vs placebo, median % change from baseline",[1]; Year 1,−6.6%
same,"LDL-C derived between group difference vs placebo, median absolute change from baseline",[1]; Year 1,-5.0 mg/dL
same,"Apo B between group difference vs placebo, median % change from baseline",[1]; Year 2,−9.7%
same,"Apo B between group difference vs placebo, median absolute change from baseline",[1]; Year 2,-8.0 mg/dL
same,"HDL-C between group difference vs placebo, median % change from baseline",[1]; Year 2,−4.6%
same,"HDL-C between group difference vs placebo, median absolute change from baseline",[1]; Year 2,-2.0 mg/dL
same,"LDL-C Hopkins between group difference vs placebo, median absolute change from baseline",[1]; Year 2,-9.4 mg/dL
same,"Log hsCRP between group difference vs placebo, median absolute change from baseline",[1]; Year 2,−0.4 mg/L
same,"hsCRP between group difference vs placebo, median absolute change from baseline",[1]; Year 2,-0.9 mg/L
same,"HDL-C between group difference vs placebo, median % change from baseline",[1]; Year 3,−3.8%
same,"HDL-C between group difference vs placebo, median absolute change from baseline",[1]; Year 3,-1.5 mg/dL
same,"LDL-C Hopkins between group difference vs placebo, median absolute change from baseline",[1]; Year 3,-8.7 mg/dL
same,"HDL-C between group difference vs placebo, median % change from baseline",[1]; Year 4,−3.9%
same,"HDL-C between group difference vs placebo, median absolute change from baseline",[1]; Year 4,-1.5 mg/dL
same,"LDL-C Hopkins between group difference vs placebo, median absolute change from baseline",[1]; Year 4,-8.9 mg/dL
same,"Non-HDL-C between group difference vs placebo, median % change from baseline",[1]; Year 4,−12.0%
same,"Non-HDL-C between group difference vs placebo, median absolute change from baseline",[1]; Year 4,-14.0 mg/dL
same,"Triglycerides between group difference vs placebo, median absolute change from baseline",[1]; Year 4,-38.0 mg/dL
same,"HDL-C between group difference vs placebo, median % change from baseline",[1]; Year 5,−3.0%
same,"HDL-C between group difference vs placebo, median absolute change from baseline",[1]; Year 5,-1.5 mg/dL
same,"LDL-C Hopkins between group difference vs placebo, median % change from baseline",[1]; Year 5,−8.0%
same,"LDL-C Hopkins between group difference vs placebo, median absolute change from baseline",[1]; Year 5,-6.6 mg/dL
same,"Non-HDL-C between group difference vs placebo, median % change from baseline",[1]; Year 5,−9.9%
same,"Non-HDL-C between group difference vs placebo, median absolute change from baseline",[1]; Year 5,-11.0 mg/dL
same,Triglycerides: median reduction from baseline greater than in placebo group (Hodges-Lehmann),[1]; baseline to one year,19.7%
same,Achieved EPA level with statistically and clinically meaningful risk reductions in NHF,[2]; EPA tertile analyses within icosapent ethyl group,above 104 μg/mL
same,New heart failure requiring hospitalization: HR vs lowest on treatment EPA tertile,[2]; middle EPA tertile,0.47
same,New heart failure: HR vs lowest on treatment EPA tertile,[2]; middle EPA tertile,0.55
same,New heart failure requiring hospitalization: HR vs lowest on treatment EPA tertile,[2]; upper EPA tertile,0.45
same,New heart failure: HR vs lowest on treatment EPA tertile,[2]; upper EPA tertile,0.41
